Our source for the inhibition and IC50 values is ChEMBL document CHEMBL1127208, “Centaureidin, a cytotoxic flavone from Polymnia fruticosa, inhibits tubulin polymerization” (Bioorg Med Chem Lett, 1993).

Assay [1] has as its target Tubulin alpha chain (Sus scrofa) (UniProt P02550). The assay can be described thus: Tested for the inhibition using the binding of 5 uM [3H]colchicine to purified tubulin at 37 degree Centigrade.
Assay [2] can be described thus: Tested for the cytotoxicity concentration in CA46 burkitt lymphoma cells. The conditions noted are these: Homo sapiens. It counts as functional, cell-based.
For the next assay, the target named is Tubulin alpha chain (Sus scrofa, UniProt P02550). The assay can be described thus: Tested for 50 % inhibition of tubulin polymerization by turbidimetric assay.
Sequence of Tubulin alpha chain (P02550 whole entry, looked up): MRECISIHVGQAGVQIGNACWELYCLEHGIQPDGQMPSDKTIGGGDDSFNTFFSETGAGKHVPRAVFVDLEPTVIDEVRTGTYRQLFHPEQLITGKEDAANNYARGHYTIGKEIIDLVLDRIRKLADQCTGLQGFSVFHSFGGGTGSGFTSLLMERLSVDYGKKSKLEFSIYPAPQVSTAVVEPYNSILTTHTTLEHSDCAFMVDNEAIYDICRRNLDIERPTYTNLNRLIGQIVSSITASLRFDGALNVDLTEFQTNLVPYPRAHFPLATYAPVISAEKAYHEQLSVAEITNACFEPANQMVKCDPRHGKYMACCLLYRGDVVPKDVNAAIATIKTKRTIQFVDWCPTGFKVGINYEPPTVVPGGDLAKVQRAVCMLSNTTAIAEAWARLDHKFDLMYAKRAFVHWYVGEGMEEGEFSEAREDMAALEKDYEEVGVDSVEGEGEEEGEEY

Sequence of Tubulin alpha chain (Sus scrofa) (P02550 whole entry, looked up): as above

Usually inhibition stands for the drop in the measured response relative to a control, in per cent. Molecule `COc1cc([C@@H]2c3cc4c(cc3[C@H](O)[C@H]3COC(=O)[C@H]23)OCO4)cc(OC)c1OC` returned an inhibition in assay [1] of 84%.
As usually defined, the IC50 is the concentration that inhibits the measured activity by half. High values mean a need for much substance, low ones inhibition by little substance. Consider `COc1ccc(-c2oc3cc(O)c(OC)c(O)c3c(=O)c2OC)cc1O` [CENTAUREIDIN], for which the IC50 turned out to be 200 nM in assay [2] and 3000 nM on Tubulin alpha chain.
